Assay results taken from ChEMBL document CHEMBL1150665, “Screening of ubiquitous plant constituents for COX-2 inhibition with a scintillation proximity based assay” (J Nat Prod, 2002).
Activity calls are given as the source filed them. The calls are words filed in the database; no cut-off is given here.

These molecules were tested against T1, Prostaglandin G/H synthase 2 (Homo sapiens) (UniProt P35354). Details: at 100 µM.
T1 sequence (whole entry): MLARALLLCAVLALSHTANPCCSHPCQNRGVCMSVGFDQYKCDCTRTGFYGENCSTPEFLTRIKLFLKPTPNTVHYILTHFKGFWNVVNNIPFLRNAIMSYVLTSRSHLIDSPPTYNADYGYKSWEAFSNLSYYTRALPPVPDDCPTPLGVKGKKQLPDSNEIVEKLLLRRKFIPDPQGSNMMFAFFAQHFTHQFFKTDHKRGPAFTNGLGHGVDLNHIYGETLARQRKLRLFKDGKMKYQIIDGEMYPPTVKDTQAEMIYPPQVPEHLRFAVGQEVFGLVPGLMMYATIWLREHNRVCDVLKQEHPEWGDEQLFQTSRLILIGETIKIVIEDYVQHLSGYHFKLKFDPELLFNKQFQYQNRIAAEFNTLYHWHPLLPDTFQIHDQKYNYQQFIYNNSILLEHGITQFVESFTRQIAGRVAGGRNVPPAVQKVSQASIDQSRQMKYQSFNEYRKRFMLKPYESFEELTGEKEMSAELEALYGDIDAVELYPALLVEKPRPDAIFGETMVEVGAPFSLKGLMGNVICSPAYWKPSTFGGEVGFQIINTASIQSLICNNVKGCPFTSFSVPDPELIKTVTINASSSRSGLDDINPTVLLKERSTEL
Description: Inhibition of COX2 at 100 uM by scintillation proximity assay

| Molecule | inhibition [%] |
| --- | --- |
| OC[C@H]1O[C@@H](Oc2ccc(O)cc2)[C@H](O)[C@@H](O)[C@@H]1O | < 30 |
| O=c1cc(-c2ccc(O)c(O)c2)oc2cc(O)cc(O)c12 [LUTEOLIN] | < 30 |
| C=C(C)[C@@H]1CC[C@]2(CO)CC[C@]3(C)[C@H](CC[C@@H]4[C@@]5(C)CC[C@H](O)C(C)(C)[C@@H]5CC[C@]43C)[C@@H]12 | < 30 |
| O=C/C=C/c1ccccc1 | 45 |
| CC12CCC(CC1=O)C2(C)C (stereo not drawn) | < 30 |
| COc1cc([C@@H]2c3cc4c(cc3[C@H](O)[C@H]3COC(=O)[C@H]23)OCO4)cc(OC)c1OC | < 30 |
| O=C(O)CCCCC1CCSS1 (stereo not drawn) | < 30 |
| O=C(O)c1cc(O)c(O)c(O)c1 | < 30 |
| CC(C)C1=CC2=CC[C@@H]3[C@](C)(CCC[C@@]3(C)C(=O)O)[C@H]2CC1 | < 30 |
| CC12CCC(CC1)C(C)(C)O2 | < 30 |
| O=C(O)c1cccnc1 | < 30 |
| C[C@@H]1O[C@@H](O[C@H]2C[C@@H](O)[C@]3(CO)[C@H]4[C@H](O)C[C@]5(C)[C@@H](C6=CC(=O)OC6)CC[C@]5(O)[C@@H]4CC[C@]3(O)C2)[C@H](O)[C@H](O)[C@H]1O | < 30 |
| Cn1c(=O)c2[nH]cnc2n(C)c1=O | < 30 |
| CC(C)=CCC[C@](C)(O)[C@H]1CC=C(C)CC1 | < 30 |
| O=C(O)c1cc(O)c2c(c1)[C@@H]([C@H]1c3cc(C(=O)O)cc(O)c3C(=O)c3c(O[C@@H]4O[C@H](CO)[C@@H](O)[C@H](O)[C@H]4O)cccc31)c1cccc(O[C@@H]3O[C@H](CO)[C@@H](O)[C@H](O)[C@H]3O)c1C2=O | < 30 |
| Cn1c(=O)c2c(ncn2C)n(C)c1=O | < 30 |
| O=C1C[C@@H](c2ccc(O)cc2)Oc2cc(O)cc(O)c21 | < 30 |
| CN1[C@@H]2C[C@@H](OC(=O)[C@H](CO)c3ccccc3)C[C@H]1[C@@H]1O[C@H]12 | < 30 |
| O=C(O)C1CCCCN1 (stereo not drawn) | < 30 |
| O=c1ccc2ccc(O)cc2o1 | < 30 |
| O=C(O)C1=C[C@@H](O)[C@@H](O)[C@H](O)C1 | < 30 |
| O=C(/C=C/c1ccc(O)c(O)c1)O[C@@H]1C[C@](O)(C(=O)O)C[C@@H](O)[C@H]1O | < 30 |

| Molecule | inhibition [%] |
| --- | --- |
| O=c1ccc2cc(O[C@@H]3O[C@H](CO)[C@@H](O)[C@H](O)[C@H]3O)c(O)cc2o1 | < 30 |
| Oc1cccc(O)c1O | 57 |
| O=c1cc(-c2ccccc2)oc2cc(O)cc(O)c12 | < 30 |
| O=C(O)/C=C/c1ccc(O)cc1 | < 30 |
| Cc1ccc(C(C)C)c(O)c1 | < 30 |
| Oc1ccc(O)cc1 | < 30 |
| CN1[C@@H]2CC[C@H]1C[C@@H](OC(=O)C(CO)c1ccccc1)C2 (mixture of isomers) | < 30 |
| C[C@@H]1O[C@@H](OC[C@H]2O[C@@H](Oc3c(-c4ccc(O)c(O)c4)oc4cc(O)cc(O)c4c3=O)[C@H](O)[C@@H](O)[C@@H]2O)[C@H](O)[C@H](O)[C@H]1O | < 30 |
| C[N+]1(C)CCC[C@H]1C(=O)[O-] | < 30 |
| COc1ccc(C(=O)O)cc1O | < 30 |
| O=C(O)[C@]1(O)C[C@H](O)[C@@H](O)[C@@H](O)C1 | < 30 |
| CC(C)[C@@H]1CC[C@@H](C)C[C@H]1O | < 30 |
| O=c1ccc2ccccc2o1 | < 30 |
| COc1cc2ccc(=O)oc2cc1O | < 30 |
| CC(C)=CCCC(C)CCO (racemic) | < 30 |
| O=c1c(O)c(-c2cc(O)c(O)c(O)c2)oc2cc(O)cc(O)c12 | 62 |
| C[n+]1cccc(C(=O)[O-])c1 | < 30 |
| C=C(C)[C@H]1CC=C(C)CC1 | < 30 |
| O=C(O)/C=C/c1ccc(O)c(O)c1 | 32 |
| CC(C)=CCC[C@@H](C)CC=O | < 30 |
| CC[C@H]1CN2CCc3cc(OC)c(OC)cc3[C@@H]2C[C@@H]1C[C@H]1NCCc2cc(OC)c(OC)cc21 | < 30 |

Each molecule was assayed against T2, Prostaglandin G/H synthase 2 (Homo sapiens, UniProt P35354). Details: not given.
T2 sequence (P35354 whole entry): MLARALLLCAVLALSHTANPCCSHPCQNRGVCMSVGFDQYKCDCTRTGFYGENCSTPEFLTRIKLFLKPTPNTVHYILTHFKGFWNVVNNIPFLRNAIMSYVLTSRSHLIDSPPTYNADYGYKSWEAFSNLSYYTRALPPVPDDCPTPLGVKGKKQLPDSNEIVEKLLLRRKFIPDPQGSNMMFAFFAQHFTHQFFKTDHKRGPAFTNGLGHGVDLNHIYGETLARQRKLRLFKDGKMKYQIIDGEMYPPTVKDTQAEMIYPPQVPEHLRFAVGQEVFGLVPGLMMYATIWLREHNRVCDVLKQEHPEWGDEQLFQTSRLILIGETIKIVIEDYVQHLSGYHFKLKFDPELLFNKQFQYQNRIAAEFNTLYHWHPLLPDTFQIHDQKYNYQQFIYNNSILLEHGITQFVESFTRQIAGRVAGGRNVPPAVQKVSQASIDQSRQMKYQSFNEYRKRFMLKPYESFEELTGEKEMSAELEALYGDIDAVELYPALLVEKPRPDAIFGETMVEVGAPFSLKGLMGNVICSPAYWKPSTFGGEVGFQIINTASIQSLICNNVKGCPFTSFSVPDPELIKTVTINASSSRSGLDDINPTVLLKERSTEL

| Molecule | IC50 [µM] |
| --- | --- |
| C[C@H]1[C@H](C)CC[C@]2(C(=O)O)CC[C@]3(C)C(=CC[C@@H]4[C@@]5(C)CC[C@H](O)C(C)(C)[C@@H]5CC[C@]43C)[C@H]12 [URSOLIC ACID] | 86 |
| c1ccc(-c2ccc(-c3ccccc3)cc2)cc1 [TANNIN PYROGALLOL] | 144 |

The molecules below were run on CCCCC/C=C\C/C=C\C/C=C\C/C=C\CCCC(=O)O (assay: Activity of COX2). Details: not given.

| Molecule | Km [µM] |
| --- | --- |
| Prostaglandin G/H synthase 2 (Homo sapiens), P35354 (protein) MLARALLLCAVLALSHTANPCCSHPCQNRGVCMSVGFDQYKCDCTRTGFYGENCSTPEFLTRIKLFLKPTPNTVHYILTHFKGFWNVVNNIPFLRNAIMSYVLTSRSHLIDSPPTYNADYGYKSWEAFSNLSYYTRALPPVPDDCPTPLGVKGKKQLPDSNEIVEKLLLRRKFIPDPQGSNMMFAFFAQHFTHQFFKTDHKRGPAFTNGLGHGVDLNHIYGETLARQRKLRLFKDGKMKYQIIDGEMYPPTVKDTQAEMIYPPQVPEHLRFAVGQEVFGLVPGLMMYATIWLREHNRVCDVLKQEHPEWGDEQLFQTSRLILIGETIKIVIEDYVQHLSGYHFKLKFDPELLFNKQFQYQNRIAAEFNTLYHWHPLLPDTFQIHDQKYNYQQFIYNNSILLEHGITQFVESFTRQIAGRVAGGRNVPPAVQKVSQASIDQSRQMKYQSFNEYRKRFMLKPYESFEELTGEKEMSAELEALYGDIDAVELYPALLVEKPRPDAIFGETMVEVGAPFSLKGLMGNVICSPAYWKPSTFGGEVGFQIINTASIQSLICNNVKGCPFTSFSVPDPELIKTVTINASSSRSGLDDINPTVLLKERSTEL | 1 |

What follows are molecules tested against T2, Prostaglandin G/H synthase 2 (assay: Inhibition of COX2 in LPS-stimulated bone marrow derived mast cells). Details: not given.

| Molecule | IC50 [µM] |
| --- | --- |
| O=c1cc(-c2ccc(O)c(O)c2)oc2cc(O)cc(O)c12 [LUTEOLIN] | 8.73 |

These molecules were tested against T1, Prostaglandin G/H synthase 2 (Homo sapiens) (assay: Inhibition of COX2 at 10 uM by scintillation proximity assay). Details: not given.

| Molecule | Activity |
| --- | --- |
| O=C/C=C/c1ccccc1 | inactive |
| Oc1cccc(O)c1O | inactive |
| C=CCc1ccc(O)c(OC)c1 | inactive |
| O=c1c(O)c(-c2cc(O)c(O)c(O)c2)oc2cc(O)cc(O)c12 | inactive |
| O=C(O)/C=C/c1ccc(O)c(O)c1 | inactive |

What follows are molecules tested against T2, Prostaglandin G/H synthase 2 (assay: Inhibition of COX2). Details: not given.

| Molecule | IC50 [µM] |
| --- | --- |
| O=c1cc(-c2ccc(O)c(O)c2)oc2cc(O)cc(O)c12 [LUTEOLIN] | < 349 |
